Data as given in patent US7074789B2, “Kinase inhibitors” (Amgen Inc., priority 1999, dated 2006).

Experiments:
Type in all cases: biochemical
Lck = biological target: T1, Lck (Homo sapiens, UniProt P06239); assay: Kinase inhibition assay (33P transfer), Lck; settings: Table 3, class symbols; read-out: Lck-1
T1 construct: Kinases are expressed as either kinase domains or full length constructs; made in house
Procedure, shortened: (§1)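 Filterless plate radiometric format: immobilized poly(Glu,Tyr) 4:1 or poly(Arg,Ser) 3:1, 33P-labelled ATP, tagged recombinant kinase (some with regulatory partners). Incorporated label counted after phosphoric acid wash.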

Itk = biological target: T2, Itk (Homo sapiens, UniProt Q08881); assay: Kinase inhibition assay (33P transfer), Itk; settings: Table 3, class symbols; read-out: Itk-1
T2 construct: Kinases are expressed as either kinase domains or full length constructs; made in house
T2 sequence (Q08881 1-620): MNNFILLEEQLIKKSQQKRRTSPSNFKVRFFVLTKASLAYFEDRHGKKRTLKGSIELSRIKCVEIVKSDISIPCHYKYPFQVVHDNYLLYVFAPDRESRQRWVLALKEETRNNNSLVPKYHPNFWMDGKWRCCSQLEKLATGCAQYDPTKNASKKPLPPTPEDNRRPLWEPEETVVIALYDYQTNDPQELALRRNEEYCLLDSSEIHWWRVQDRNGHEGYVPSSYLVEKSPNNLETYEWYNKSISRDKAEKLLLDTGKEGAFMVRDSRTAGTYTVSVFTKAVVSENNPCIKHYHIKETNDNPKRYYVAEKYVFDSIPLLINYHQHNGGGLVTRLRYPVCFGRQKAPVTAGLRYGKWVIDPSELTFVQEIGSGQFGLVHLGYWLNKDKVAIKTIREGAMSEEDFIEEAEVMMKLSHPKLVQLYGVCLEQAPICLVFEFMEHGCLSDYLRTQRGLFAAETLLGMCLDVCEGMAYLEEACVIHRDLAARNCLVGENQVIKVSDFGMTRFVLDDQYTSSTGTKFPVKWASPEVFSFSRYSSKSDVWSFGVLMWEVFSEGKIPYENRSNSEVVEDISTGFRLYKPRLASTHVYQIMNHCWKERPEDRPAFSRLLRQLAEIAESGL
Procedure, shortened: (§2)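 IC50: inhibitor concentration lowering 33P incorporation into immobilised substrate by 50%. Label transferred from ATP to poly(Glu,Tyr) 4:1 or poly(Arg,Ser) 3:1 is measured after a 0.5% phosphoric acid wash by liquid scintillation.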

PDGFRB = biological target: T3, PDGFRB (Homo sapiens, UniProt P09619); assay: Kinase inhibition assay (33P transfer), PDGFRB; settings: read-out: PDGFRB-1
T3 construct: Kinases are expressed as either kinase domains or full length constructs; made in house
T3 sequence (P09619 33-1106, species assumed): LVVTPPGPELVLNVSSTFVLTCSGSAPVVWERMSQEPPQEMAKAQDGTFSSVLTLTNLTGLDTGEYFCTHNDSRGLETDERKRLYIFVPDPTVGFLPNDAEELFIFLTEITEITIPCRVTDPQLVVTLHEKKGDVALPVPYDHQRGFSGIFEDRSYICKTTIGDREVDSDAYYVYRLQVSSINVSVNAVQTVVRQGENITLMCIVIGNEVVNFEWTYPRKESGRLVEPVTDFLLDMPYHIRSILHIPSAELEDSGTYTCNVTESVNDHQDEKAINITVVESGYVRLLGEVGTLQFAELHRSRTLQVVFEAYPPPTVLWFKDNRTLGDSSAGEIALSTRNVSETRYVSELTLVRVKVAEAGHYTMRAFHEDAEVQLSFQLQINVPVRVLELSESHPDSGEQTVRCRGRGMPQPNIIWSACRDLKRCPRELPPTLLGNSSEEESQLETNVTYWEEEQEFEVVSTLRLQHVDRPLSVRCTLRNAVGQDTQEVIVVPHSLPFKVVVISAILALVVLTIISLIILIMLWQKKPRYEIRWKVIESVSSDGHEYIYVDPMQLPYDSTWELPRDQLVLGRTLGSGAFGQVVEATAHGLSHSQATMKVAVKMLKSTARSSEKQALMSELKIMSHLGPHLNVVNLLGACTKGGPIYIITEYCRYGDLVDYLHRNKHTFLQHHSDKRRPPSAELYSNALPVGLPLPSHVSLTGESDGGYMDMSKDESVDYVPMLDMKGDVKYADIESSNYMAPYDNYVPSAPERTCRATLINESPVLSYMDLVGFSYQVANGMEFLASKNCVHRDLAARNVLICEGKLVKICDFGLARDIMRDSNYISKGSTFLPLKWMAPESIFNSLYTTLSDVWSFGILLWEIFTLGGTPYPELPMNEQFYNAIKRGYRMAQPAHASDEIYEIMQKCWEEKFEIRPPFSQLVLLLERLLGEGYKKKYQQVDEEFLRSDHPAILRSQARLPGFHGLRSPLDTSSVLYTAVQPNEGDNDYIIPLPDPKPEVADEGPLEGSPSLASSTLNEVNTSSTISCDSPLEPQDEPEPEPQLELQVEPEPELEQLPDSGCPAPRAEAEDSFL

IGFR-1 = biological target: T4, IGFR-1 (Homo sapiens, UniProt P08069); assay: Kinase inhibition assay (33P transfer), IGFR-1; settings: Table 2, class symbols A-E
T4 construct: Kinases are expressed as either kinase domains or full length constructs; made in house

ErbB2 = biological target: T5, ErbB2 (Homo sapiens, UniProt P04626); assay: Kinase inhibition assay (33P transfer), ErbB2; settings: read-out: ErbB2-2
T5 construct: Kinases are expressed as either kinase domains or full length constructs; made in house
Procedure, shortened: as §2

EGFR = biological target: T6, EGFR (Homo sapiens, UniProt P00533); assay: Kinase inhibition assay (33P transfer), EGFR; settings: Table 2, class symbols A-E; read-out: EGFR-1
T6 construct: Kinases are expressed as either kinase domains or full length constructs; made in house
T6 sequence (P00533 25-1210, species assumed): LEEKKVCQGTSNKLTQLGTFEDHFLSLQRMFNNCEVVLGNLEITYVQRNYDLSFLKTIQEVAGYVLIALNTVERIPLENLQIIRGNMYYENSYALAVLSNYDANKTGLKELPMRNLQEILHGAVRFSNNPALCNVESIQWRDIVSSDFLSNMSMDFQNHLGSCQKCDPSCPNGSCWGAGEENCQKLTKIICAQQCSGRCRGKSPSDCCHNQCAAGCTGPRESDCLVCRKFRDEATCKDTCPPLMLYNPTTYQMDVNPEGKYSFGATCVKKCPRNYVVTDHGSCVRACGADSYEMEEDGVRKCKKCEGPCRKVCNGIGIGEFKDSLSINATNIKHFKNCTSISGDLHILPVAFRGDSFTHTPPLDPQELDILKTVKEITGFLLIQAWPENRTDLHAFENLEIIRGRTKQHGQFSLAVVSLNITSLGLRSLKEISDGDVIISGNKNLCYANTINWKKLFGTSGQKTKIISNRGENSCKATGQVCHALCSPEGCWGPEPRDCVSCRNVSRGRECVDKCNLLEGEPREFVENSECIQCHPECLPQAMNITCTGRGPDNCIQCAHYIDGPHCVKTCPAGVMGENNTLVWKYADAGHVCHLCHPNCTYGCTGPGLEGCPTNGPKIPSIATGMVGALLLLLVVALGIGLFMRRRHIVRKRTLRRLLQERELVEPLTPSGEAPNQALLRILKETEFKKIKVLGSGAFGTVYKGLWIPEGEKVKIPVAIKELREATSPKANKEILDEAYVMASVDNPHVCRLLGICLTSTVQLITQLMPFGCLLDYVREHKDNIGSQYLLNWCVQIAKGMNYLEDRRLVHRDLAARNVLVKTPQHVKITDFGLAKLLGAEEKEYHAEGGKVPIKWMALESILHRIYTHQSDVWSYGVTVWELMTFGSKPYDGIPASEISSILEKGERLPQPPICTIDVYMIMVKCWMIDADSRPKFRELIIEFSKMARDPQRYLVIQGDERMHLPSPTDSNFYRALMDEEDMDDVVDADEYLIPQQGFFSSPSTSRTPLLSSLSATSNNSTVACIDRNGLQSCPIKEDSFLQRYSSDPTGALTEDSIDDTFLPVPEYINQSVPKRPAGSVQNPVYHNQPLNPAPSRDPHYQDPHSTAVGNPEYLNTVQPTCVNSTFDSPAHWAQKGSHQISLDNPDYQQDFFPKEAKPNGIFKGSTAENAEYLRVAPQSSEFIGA
Procedure, shortened: as §2

Kdr = biological target: T7, Kdr (Homo sapiens, UniProt P35968); assay: Kinase inhibition assay (33P transfer), Kdr; settings: Table 3, class symbols; read-out: KDR-1
T7 construct: Kinases are expressed as either kinase domains or full length constructs; made in house
Procedure, shortened: as §1

c-Met = biological target: T8, c-Met (Homo sapiens, UniProt P08581); assay: Kinase inhibition assay (33P transfer), c-Met; settings: Table 2, class symbols A-E; read-out: Met-1
T8 construct: Kinases are expressed as either kinase domains or full length constructs; made in house
T8 sequence (P08581 25-1390): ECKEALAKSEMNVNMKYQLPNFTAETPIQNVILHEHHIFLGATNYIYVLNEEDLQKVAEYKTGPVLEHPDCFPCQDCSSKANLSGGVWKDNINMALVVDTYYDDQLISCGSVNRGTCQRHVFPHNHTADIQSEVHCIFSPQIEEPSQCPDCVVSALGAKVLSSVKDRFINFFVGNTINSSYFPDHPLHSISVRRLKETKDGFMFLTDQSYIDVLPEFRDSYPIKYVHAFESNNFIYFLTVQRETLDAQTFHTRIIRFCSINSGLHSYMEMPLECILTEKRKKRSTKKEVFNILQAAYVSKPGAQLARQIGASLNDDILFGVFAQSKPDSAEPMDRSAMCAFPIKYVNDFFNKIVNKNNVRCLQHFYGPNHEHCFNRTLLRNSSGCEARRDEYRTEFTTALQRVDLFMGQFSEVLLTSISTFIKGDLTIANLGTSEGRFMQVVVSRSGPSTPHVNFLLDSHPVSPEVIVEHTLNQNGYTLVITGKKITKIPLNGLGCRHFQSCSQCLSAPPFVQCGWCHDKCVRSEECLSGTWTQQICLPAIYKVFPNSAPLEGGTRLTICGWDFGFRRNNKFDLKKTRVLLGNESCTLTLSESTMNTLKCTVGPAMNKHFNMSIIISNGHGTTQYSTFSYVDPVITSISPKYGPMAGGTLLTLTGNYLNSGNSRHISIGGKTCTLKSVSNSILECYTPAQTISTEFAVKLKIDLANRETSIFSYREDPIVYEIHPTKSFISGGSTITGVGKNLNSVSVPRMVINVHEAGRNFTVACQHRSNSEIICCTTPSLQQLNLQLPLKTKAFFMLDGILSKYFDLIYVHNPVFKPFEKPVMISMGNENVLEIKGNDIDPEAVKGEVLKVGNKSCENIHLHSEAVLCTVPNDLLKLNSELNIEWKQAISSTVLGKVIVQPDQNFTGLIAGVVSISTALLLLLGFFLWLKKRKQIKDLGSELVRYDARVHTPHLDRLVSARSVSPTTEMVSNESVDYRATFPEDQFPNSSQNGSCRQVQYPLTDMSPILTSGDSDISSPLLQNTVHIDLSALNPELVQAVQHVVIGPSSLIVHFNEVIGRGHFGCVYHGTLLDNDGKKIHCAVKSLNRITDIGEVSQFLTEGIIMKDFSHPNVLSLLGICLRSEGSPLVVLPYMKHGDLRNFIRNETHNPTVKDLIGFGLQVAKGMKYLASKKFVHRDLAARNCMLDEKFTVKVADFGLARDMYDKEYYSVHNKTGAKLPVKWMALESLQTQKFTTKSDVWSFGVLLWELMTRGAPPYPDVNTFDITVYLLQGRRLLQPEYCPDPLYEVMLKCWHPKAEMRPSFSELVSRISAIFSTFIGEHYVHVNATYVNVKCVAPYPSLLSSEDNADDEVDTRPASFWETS
Procedure, shortened: as §2

AKT = biological target: T9, AKT (Homo sapiens, UniProt Q9Y243); assay: Kinase inhibition assay (33P transfer), AKT; settings: Table 2, class symbols A-E; read-out: AKT3-1
T9 construct: Kinases are expressed as either kinase domains or full length constructs; made in house
T9 sequence (Q9Y243 whole entry, the tested form may be a part): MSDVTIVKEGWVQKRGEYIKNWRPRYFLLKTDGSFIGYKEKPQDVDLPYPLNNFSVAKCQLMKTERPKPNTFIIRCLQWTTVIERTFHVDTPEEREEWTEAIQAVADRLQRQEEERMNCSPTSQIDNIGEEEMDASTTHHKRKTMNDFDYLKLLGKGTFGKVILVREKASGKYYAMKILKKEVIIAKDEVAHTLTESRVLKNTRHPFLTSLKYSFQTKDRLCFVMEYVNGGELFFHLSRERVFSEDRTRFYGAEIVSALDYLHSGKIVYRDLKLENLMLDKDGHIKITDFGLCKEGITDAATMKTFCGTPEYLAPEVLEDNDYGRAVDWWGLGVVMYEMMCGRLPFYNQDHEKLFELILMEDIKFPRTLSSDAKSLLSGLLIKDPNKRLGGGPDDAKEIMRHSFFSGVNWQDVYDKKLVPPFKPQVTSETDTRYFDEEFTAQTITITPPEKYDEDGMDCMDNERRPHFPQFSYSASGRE
Procedure, shortened: as §1

Zap-70 = biological target: T10, Zap-70 (Homo sapiens, UniProt P43403); assay: Kinase inhibition assay (33P transfer), Zap-70; settings: Table 3, class symbols; read-out: Zap-1
T10 construct: Kinases are expressed as either kinase domains or full length constructs; made in house
T10 sequence (P43403 1-619): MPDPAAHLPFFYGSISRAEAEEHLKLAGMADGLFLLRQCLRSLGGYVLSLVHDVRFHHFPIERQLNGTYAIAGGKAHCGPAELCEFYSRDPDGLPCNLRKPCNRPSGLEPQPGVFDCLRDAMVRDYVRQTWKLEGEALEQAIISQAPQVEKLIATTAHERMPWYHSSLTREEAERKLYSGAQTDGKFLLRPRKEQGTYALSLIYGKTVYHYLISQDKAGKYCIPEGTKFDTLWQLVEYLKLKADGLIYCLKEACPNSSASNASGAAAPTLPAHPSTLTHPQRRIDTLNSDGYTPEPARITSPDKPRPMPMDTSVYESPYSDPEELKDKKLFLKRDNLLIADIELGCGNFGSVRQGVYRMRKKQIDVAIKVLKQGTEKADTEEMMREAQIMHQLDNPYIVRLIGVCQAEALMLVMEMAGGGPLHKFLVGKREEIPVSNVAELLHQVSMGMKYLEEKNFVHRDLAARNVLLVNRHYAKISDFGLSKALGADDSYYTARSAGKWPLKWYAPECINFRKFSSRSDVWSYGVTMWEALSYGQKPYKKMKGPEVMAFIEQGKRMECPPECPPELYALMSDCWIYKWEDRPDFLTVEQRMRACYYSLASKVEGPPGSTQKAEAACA
Procedure, shortened: as §1

T1 sequence (P06239 whole entry, species assumed, the tested form may be a part): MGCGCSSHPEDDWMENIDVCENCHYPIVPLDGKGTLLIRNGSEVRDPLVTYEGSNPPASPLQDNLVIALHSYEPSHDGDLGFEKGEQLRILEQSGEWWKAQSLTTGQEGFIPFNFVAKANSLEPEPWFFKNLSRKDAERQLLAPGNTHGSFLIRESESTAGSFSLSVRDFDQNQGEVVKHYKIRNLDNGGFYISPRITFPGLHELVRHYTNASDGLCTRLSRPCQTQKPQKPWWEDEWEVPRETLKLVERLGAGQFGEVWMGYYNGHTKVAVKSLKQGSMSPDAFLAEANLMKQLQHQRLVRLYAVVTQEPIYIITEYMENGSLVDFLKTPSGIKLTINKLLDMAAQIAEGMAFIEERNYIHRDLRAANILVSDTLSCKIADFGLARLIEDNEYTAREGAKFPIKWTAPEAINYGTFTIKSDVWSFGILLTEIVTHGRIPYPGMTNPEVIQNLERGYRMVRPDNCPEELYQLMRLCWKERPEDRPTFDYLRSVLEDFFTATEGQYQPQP

SMILES	IC50 (Lck) [µM]	IC50 (Itk) [µM]	IC50 (PDGFRB) [µM]	IC50 (IGFR-1) [µM]	IC50 (ErbB2) [µM]	IC50 (EGFR) [µM]	IC50 (Kdr) [µM]	IC50 (c-Met) [µM]	IC50 (AKT) [µM]	IC50 (Zap-70) [µM]
COc1cc(Nc2ncnc(N(C)c3cccc(Cl)c3)n2)cc2ccccc12 [Compound 876]	> 11.5	8.93 to 11.5	> 11.5	> 11.5	1.02 to 6.12	< 1.02	> 11.5	> 11.5	> 11.5	> 11.5
COC(=O)c1ccc(-c2cc(Nc3ncnc(NCc4cccs4)n3)[nH]n2)cc1 [Compound 877]	> 11	0.982 to 5.89	0.982 to 5.89	8.59 to 11	> 11	5.89 to 8.59	> 11	0.982 to 5.89	> 11	> 11
COC(=O)c1ccc(-c2cc(Nc3ncnc(Nc4cccc5ncccc45)n3)[nH]n2)cc1 [Compound 878]	> 10.3	7.98 to 10.3	0.912 to 5.47	5.47 to 7.98	> 10.3	> 10.3	> 10.3	7.98 to 10.3	> 10.3	> 10.3
CCOc1ccc(Nc2ncnc(Nc3cc(-c4ccc(C(=O)OC)cc4)n[nH]3)n2)cc1 [Compound 879]	> 10.4	8.11 to 10.4	0.927 to 5.56	5.56 to 8.11	> 10.4	0.927 to 5.56	> 10.4	0.927 to 5.56	> 10.4	> 10.4
COC(=O)c1ccc(-c2cc(Nc3ncnc(Nc4cc(=O)n(-c5ccccc5)[nH]4)n3)[nH]n2)cc1 [Compound 880]	> 9.59	> 9.59	0.852 to 5.11	> 9.59	5.11 to 7.46	0.852 to 5.11	5.11 to 7.46	0.852 to 5.11	> 9.59	> 9.59
COC(=O)c1ccc(-c2cc(Nc3ncnc(NC4=NC(=O)CS4)n3)[nH]n2)cc1 [Compound 881]	> 11	0.975 to 5.85	0.975 to 5.85	0.975 to 5.85	0.975 to 5.85	0.975 to 5.85	0.975 to 5.85	0.975 to 5.85	> 11	> 11
COC(=O)c1ccc(-c2cc(Nc3ncnc(Nc4cccc(S(=O)(=O)O)c4)n3)[nH]n2)cc1 [Compound 882]	5.13 to 7.49	0.856 to 5.13	0.856 to 5.13	0.856 to 5.13	0.856 to 5.13	0.856 to 5.13	0.856 to 5.13	0.856 to 5.13	5.13 to 7.49	> 9.63
CNS(=O)(=O)Cc1ccc(Nc2ncnc(Nc3cc(-c4ccc(C(=O)OC)cc4)n[nH]3)n2)cc1 [Compound 883]	> 9.1	> 9.1	4.85 to 7.08	4.85 to 7.08	> 9.1	4.85 to 7.08	> 9.1	< 0.809	> 9.1	> 9.1
O=C(O)CNC(=O)c1ccc(Nc2ncnc(Nc3cc(-c4ccco4)[nH]n3)n2)cc1 [Compound 884]	> 10.7	0.951 to 5.71	< 0.951	0.951 to 5.71	0.951 to 5.71	0.951 to 5.71	< 0.951	0.951 to 5.71	0.951 to 5.71	5.71 to 8.33
